Experimental data published in patent publication EP0351921A2, “Modified beta adrenergic receptor” (MERCK & CO. INC., priority 1988, dated 1990).

Experiments:
[Glu¹¹³]βAR = [Glu¹¹³]βAR (Mesocricetus auratus, UniProt P04274, D113E); test: Adenylyl cyclase stimulation in membranes of cell lines expressing the receptor; conditions: for %NaF: (Glu^113)βAR, percentage of maximal stimulation by 10 mM NaF, Table 3
[1] = molecular target: wild-type βAR ([Asp113]βAR) (Mesocricetus auratus, UniProt P04274); test: as above; conditions: for %NaF: (Asp^113)βAR, percentage of maximal stimulation by 10 mM NaF, Table 3; for maximal adenylyl cyclase stimulation (% of NaF): [Asp113]βAR, maximally effective concentration of the compound, relative to 10 mM NaF, Table 1
[Asn113]βAR = molecular target: T1, [Asn113]βAR (Mesocricetus auratus, UniProt P04274, D113N); test: as above; type: biochemical, hamster; conditions: for maximal adenylyl cyclase stimulation (% of NaF): [Asn113]βAR, maximally effective concentration of the compound, relative to 10 mM NaF, Table 1
T1 construct: pSVBAC contains the full length hamster β₂AR cDNA cloned into the EcoRI site of pSVL; expressed in transfected cells; host or cells: mouse L cells (clonal lines; membranes)

[His¹¹³]βAR = [His¹¹³]βAR (Mesocricetus auratus, UniProt P04274, D113H); conditions: ligand concentrations as high as 1 mM
[LYS¹¹³]βAR = [LYS¹¹³]βAR (Mesocricetus auratus, UniProt P04274, D113K); conditions: ligand concentrations as high as 1 mM
[Arg¹¹³]βAR = [Arg¹¹³]βAR (Mesocricetus auratus, UniProt P04274, D113R); conditions: ligand concentrations as high as 1 mM
[Cys¹¹³]βAR = [Cys¹¹³]βAR (Mesocricetus auratus, UniProt P04274, D113C); conditions: ligand concentrations as high as 1 mM
[2] = maximum concentration 10⁻⁴ M (*)
[3] = maximum concentration 10⁻⁵ M (+)

Chain of wild-type βAR ([Asp113]βAR) (P04274 whole entry): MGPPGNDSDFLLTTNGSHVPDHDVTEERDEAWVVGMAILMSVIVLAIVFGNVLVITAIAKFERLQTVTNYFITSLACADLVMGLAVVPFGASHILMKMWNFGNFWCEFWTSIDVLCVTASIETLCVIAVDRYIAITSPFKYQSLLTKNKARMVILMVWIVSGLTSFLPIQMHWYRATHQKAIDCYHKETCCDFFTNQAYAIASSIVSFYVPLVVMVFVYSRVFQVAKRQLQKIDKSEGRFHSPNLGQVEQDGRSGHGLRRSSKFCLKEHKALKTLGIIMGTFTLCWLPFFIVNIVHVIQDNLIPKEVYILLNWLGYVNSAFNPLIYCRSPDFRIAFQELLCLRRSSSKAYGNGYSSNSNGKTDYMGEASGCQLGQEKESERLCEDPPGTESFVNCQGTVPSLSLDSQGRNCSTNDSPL
Chain of [Glu¹¹³]βAR (P04274 whole entry D113E): as the sequence (P04274 whole entry) above, with D113E counted along it
T1 sequence (P04274 whole entry D113N): as the sequence (P04274 whole entry) above, with D113N counted along it
Chain of [His¹¹³]βAR (P04274 whole entry D113H): as the sequence (P04274 whole entry) above, with D113H counted along it
Chain of [LYS¹¹³]βAR (P04274 whole entry D113K): as the sequence (P04274 whole entry) above, with D113K counted along it
Chain of [Arg¹¹³]βAR (P04274 whole entry D113R): as the sequence (P04274 whole entry) above, with D113R counted along it
Chain of [Cys¹¹³]βAR (P04274 whole entry D113C): as the sequence (P04274 whole entry) above, with D113C counted along it

| SMILES | %NaF ([Glu¹¹³]βAR; maximum concentration 10⁻³ M) [%] | %NaF ([1]; maximum concentration 10⁻³ M) [%] | %NaF ([Glu¹¹³]βAR; [2]) | %NaF [1, 3] | further results |
| --- | --- | --- | --- | --- | --- |
| Cc1ccc(OCC(O)CNC(C)C)c2c1CCC2 (stereo not drawn) [Compound 3, 3-(7-methylindan-4-yloxy) -1-isopropylamino-2-propanol] | 6 | 0 |  |  |  |
| COCCc1ccc(OCC(O)CNC(C)C)cc1 (stereo not drawn) [Compound 7, metoprolol] |  |  | 2^* % | 0^+ % |  |
| CC(C)NCC(O)COc1ccccc1N1CCOCC1 (stereo not drawn) [Compound 9, 3-o-morpholinophenoxy-1-isopropylamino-2-propanol] | 0 | 0 |  |  |  |
| N=C(N)NCC(O)c1ccc(O)c(O)c1 [L-612,158, 1-[2-(3,4-dihydroxyphenyl)-2-hydroxyethyl]guanidine] |  |  |  |  | maximal adenylyl cyclase stimulation (% of NaF) ([Asn113]βAR): 50%; maximal adenylyl cyclase stimulation (% of NaF) [1]: 11%; decrease in affinity of the interaction with the wild type βAR ([1]; versus isoproterenol): 1000 fold |
| CC(C)NCC(O)COc1ccc(-c2ncc[nH]2)cc1 (stereo not drawn) [Compound 5, 3-(4-(1-imidazol-2-yl)phenoxy)-1-isopropylamino-2-propanol] | 0 | 0 |  |  |  |
| CC(C)NCC(O)COc1cccc2[nH]ccc12 (stereo not drawn) [Compound 2, pindolol] | 35 | 0 |  |  |  |
| CC(C)NCC(O)COc1ccc(CC(N)=O)cc1 (stereo not drawn) [Compound 6, atenolol] |  |  | 0^* % | 0^+ % |  |
| CC(C)NCC(O)COc1ccc(COCCOC(C)C)cc1 (stereo not drawn) [Compound 8, bisopropol] |  |  | 0^* % | 0^+ % |  |
| CC(C)NCC(O)c1ccc(O)c(O)c1 (stereo not drawn) [isoproterenol] |  |  |  |  | stimulation of adenylyl cyclase ([His¹¹³]βAR): no stimulation; maximal adenylyl cyclase stimulation (% of NaF) ([Asn113]βAR): 100%; decrease in affinity for the receptor ([Asn113]βAR; substitution of Asn for Asp¹¹³, versus wild-type receptor): 5000 fold; stimulation of adenylyl cyclase ([LYS¹¹³]βAR): no stimulation; stimulation of adenylyl cyclase ([Arg¹¹³]βAR): no stimulation; decrease in affinity for the receptor ([Glu¹¹³]βAR; substitution of Glu for Asp¹¹³, versus wild-type receptor): 300 fold; stimulation of adenylyl cyclase ([Cys¹¹³]βAR): no stimulation; maximal adenylyl cyclase stimulation (% of NaF) [1]: 100% |
| CC(C)NCC(O)COc1ccccc1 (stereo not drawn) [Compound 4, 3-phenoxy-1-isopropylamino-2-propanol] | 0 | 0 |  |  |  |
